The target in experiment [1] is hSTING^H232 (aa 140–379) (Homo sapiens, UniProt Q86WV6, H232R). Briefly: ITC binding to hSTING^H232. The following applies: complex printed as hSTING^H232 in b72 (Figure 4C).
Experiment [2] concerns the target hSTING^H232 (Homo sapiens, UniProt Q86WV6). Briefly: IFNB1 luciferase reporter in HEK293T cells, hSTING^H232. The note with it: cGAMP isomers and c[di-GMP] with digitonin, DMXAA in medium. For orientation: A reporter such as luciferase makes a cellular process visible.
In experiment [3] the target is T1, hSTING^R232 (Homo sapiens, UniProt Q86WV6, H232R). The note with it: ITC, Chen laboratory; ref Zhang et al., 2013; cited from earlier work. (In general: In ITC the heat of successive injections is recorded.)
Experiment [4] deals with THP1 cells. The experiment can be described thus: CXCL10 ELISA in THP1 cells after cGAMP stimulation. It is filed as cell-based, human. The note with it: for EC50 comparison: Digitonin-mediated permeabilization. On the technique in general: ELISA stands for enzyme-linked immunosorbent assay.
Experiment [5] deals with mSting. The following applies: ref Conlon et al., 2013; cited from earlier work.
Experiment [6] deals with hSTING S162I mutant (Homo sapiens, UniProt Q86WV6, S162I). Briefly: IFNB1 luciferase reporter in HEK293T cells, hSTING S162I. The experiment is classed as cell-based. The following applies: HEK293T cellular assay.
Experiment [7] concerns hSTING. The note with it: ref Conlon et al., 2013; cited from earlier work.
Experiment [8] has as its target hSTING^R232/A162 (Homo sapiens, UniProt Q86WV6, H232R/S162A). The experiment can be described thus: ITC binding to hSTING^R232/A162.
Experiment [9] addresses hSTING^H232/A162 (S162A mutant) (Homo sapiens, UniProt Q86WV6, S162A). The experiment can be described thus: ITC binding to S162A mutant of hSTING^H232.
For experiment [10], the target named is T1, hSTING^R232. The experiment can be described thus: IFNB1 luciferase reporter in HEK293T cells, hSTING^R232. The note with it: digitonin delivery.
The target in experiment [11] is hSTING^THP1 (Homo sapiens, UniProt Q86WV6, G230A/H232R/H72R/R293Q). The experiment can be described thus: IFNB1 luciferase reporter in HEK293T cells, hSTING^THP1. The note with it: digitonin delivery, c[di-GMP] 5 and 10 µM.
Experiment [12] relates to bone-marrow-derived macrophages (BMDMs). The note with it: 20 µM added to medium, 4 hr, relative to mock treatment.
The subject of experiment [13] is BMDMs. The experiment can be described thus: Western blot of Tbk1 and Irf3 phosphorylation in BMDMs. The following applies: 2 and 4 hr after treatment, compared to the two other isomers. It is filed as cell-based, mouse.
Setting [14] is: addition to medium without Digitonin, 18 hr.

Entries after “also recorded” stand apart in the source; their conditions may differ.

Chain of hSTING^H232 (Q86WV6 whole entry): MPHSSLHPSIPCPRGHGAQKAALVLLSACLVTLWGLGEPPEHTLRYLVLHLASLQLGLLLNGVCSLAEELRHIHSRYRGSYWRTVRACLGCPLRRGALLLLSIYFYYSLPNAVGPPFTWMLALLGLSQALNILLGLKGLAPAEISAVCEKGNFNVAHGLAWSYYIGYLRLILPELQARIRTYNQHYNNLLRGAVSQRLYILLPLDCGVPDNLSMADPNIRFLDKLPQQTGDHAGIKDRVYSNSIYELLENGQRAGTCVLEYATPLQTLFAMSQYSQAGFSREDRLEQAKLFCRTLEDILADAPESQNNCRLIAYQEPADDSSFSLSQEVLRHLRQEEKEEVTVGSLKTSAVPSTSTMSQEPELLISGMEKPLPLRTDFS
Chain of hSTING^R232/A162 (Q86WV6 140-379 S162A/H232R): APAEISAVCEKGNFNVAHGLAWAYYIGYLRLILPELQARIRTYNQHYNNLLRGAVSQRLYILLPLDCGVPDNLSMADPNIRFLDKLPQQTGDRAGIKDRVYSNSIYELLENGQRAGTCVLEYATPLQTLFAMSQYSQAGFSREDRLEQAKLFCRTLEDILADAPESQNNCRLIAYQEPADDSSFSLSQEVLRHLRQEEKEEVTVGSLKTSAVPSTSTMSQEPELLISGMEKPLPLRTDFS
Chain of hSTING^THP1 (Q86WV6 whole entry H72R/G230A/H232R/R293Q): as the sequence (Q86WV6 whole entry) above, with H72R, G230A, H232R, R293Q counted along it
T1 sequence (Q86WV6 whole entry H232R): as the sequence (Q86WV6 whole entry) above, with H232R counted along it
Chain of hSTING^H232/A162 (S162A mutant) (Q86WV6 140-379 S162A): as the sequence (Q86WV6 140-379 S162A/H232R) above, with R93H counted along it
Chain of hSTING^H232 (aa 140–379) (Q86WV6 140-379 H232R): as the sequence (Q86WV6 140-379 S162A/H232R) above, with A23S counted along it
Chain of hSTING S162I mutant (Q86WV6 whole entry S162I): as the sequence (Q86WV6 whole entry) above, with S162I counted along it

By Kd is commonly meant the equilibrium constant for the complex coming apart. As for `Nc1nc2c(ncn2[C@@H]2O[C@@H]3COP(=O)(O)O[C@@H]4[C@H](O)[C@@H](COP(=O)(O)O[C@@H]2[C@@H]3O)O[C@H]4n2cnc3c(N)ncnc32)c(=O)[nH]1`, the Kd in [1] amounted to 170 nM. The IFN reporter response entry in [2] was “no significant differences in stimulation”. Besides, the Kd in [3] was 280 nM. In addition, the EC50 comparison entry in experiment [4] is reported as “no difference in the EC50 values”. Moreover, in experiment [4] (setting [14]), the “stimulation more effective than c[G(2′,5′)pA(3′,5′)p]” value is 2.9 fold and the “stimulation more effective than c[G(3′,5′)pA(3′,5′)p]” value amounted to 4.8 fold.

Turning to `Cc1ccc2c(=O)c3cccc(CC(=O)O)c3oc2c1C` [DMXAA, 5,6-dimethylxanthenone-4-acetic acid], in experiment [5], the “activation of mSting” value was “activates mSting”. Besides, the IFN induction entry in experiment [6] is recorded as “IFN induction was not observed”. Moreover, the IFN reporter response entry in [2] is “nonresponsive”. The “effect on hSTING” value in experiment [7] is listed as “no effect on hSTING”. Moreover, the “binding (ITC)” value in experiment [8] (25°C) and in [9] (25°C) was “binding” each time. Moreover, the “stoichiometry N value of binding curve” value in [8] (expected 1) and in experiment [9] (expected 1) was ~1.5 in each case.

With `Nc1nc2c(ncn2[C@@H]2O[C@@H]3COP(=O)(O)O[C@H]4[C@@H](O)[C@H](n5cnc6c(=O)[nH]c(N)nc65)O[C@@H]4COP(=O)(O)O[C@H]3[C@H]2O)c(=O)[nH]1` [c[di-GMP]], the IFN reporter response entry in experiment [10] is “residual response to high concentrations of c[di-GMP]”; in experiment [11], “residual response to high concentrations of c[di-GMP]; also recorded: reduced IFN-pathway activation”; in experiment [2], “nonresponsive”.

Regarding `Nc1nc2c(ncn2[C@@H]2O[C@@H]3COP(=O)(O)O[C@H]4[C@@H](O)[C@H](n5cnc6c(N)ncnc65)O[C@@H]4COP(=O)(O)O[C@@H]2[C@@H]3O)c(=O)[nH]1` [c[G(2′,5′)pA(3′,5′)p]], the EC50 comparison entry in [4] was “no difference in the EC50 values”.

On to `Nc1nc2c(ncn2[C@@H]2O[C@@H]3COP(=O)(O)O[C@H]4[C@@H](O)[C@H](n5cnc6c(N)ncnc65)O[C@@H]4COP(=O)(O)O[C@H]3[C@H]2O)c(=O)[nH]1` [c[G(3′,5′)pA(3′,5′)p]], for which, in experiment [12], the “Ccl5 mRNA level increase” value is listed as 38 fold, the “Ifnb1 mRNA level increase” value is 1024 fold and the “Il6 mRNA level increase” value came out at 2624 fold. Further, in experiment [13], the “Tbk1 and Irf3 protein phosphorylation” value was “highest levels of Tbk1 and Irf3 protein phosphorylation”.

Source of the values: paper PMC4386733 (Cell, 2013).
